Earlier results as cited in PubChem BioAssay AID1259409 (Chemical Carcinogenesis Research Information System (CCRIS), 2018).
Where “and” joins values, the source holds several entries; their conditions need not be identical. Identical values can stand only once.

System: rodent chemically induced tumor inhibition, incidence and multiplicity
Experiment: CCRIS tumor inhibitor studies
Settings: Carcinogen: N-NITROBIS(2-OXOPROPYL)AMINE, 60559-38-4, Route [Inhibitor]: ORAL, Species: HAMSTER, Promoter: NONE USED

CC1=C(/C=C/C(C)=C/C=C/C(C)=C/C(=O)Nc2ccccc2)C(C)(C)CCC1
tumour outcome (control, treated, inhibition, significance) (Dose [Inhibitor]: 0.5 OR 1.0 MMOL/KG DIET DAILY STARTING 1 WK AFTER CARCINOGEN TREATMENT AND CONTINUING THROUGH THE END OF THE STUDY (STUD, Strain/Sex: SYRIAN/FEMALE, Target Tissue: Type of Lesion: PANCREAS: DUCTULAR ADENOMA, Dose [Carcinogen]: 10 MG/KG BW ONCE): 5/23 (22%), 11/25 (44%), -100%, not significant | tumour outcome (control, treated, inhibition, significance) (Dose [Inhibitor]: 0.5 OR 1.0 MMOL/KG DIET DAILY STARTING 1 WK AFTER CARCINOGEN TREATMENT AND CONTINUING THROUGH THE END OF THE STUDY (STUD, Strain/Sex: SYRIAN/FEMALE, Target Tissue: Type of Lesion: PANCREAS: DUCTULAR ADENOMA, Dose [Carcinogen]: 40 MG/KG BW ONCE): 12/20 (60%), 18/26 (69%), -15%, not significant | tumour outcome (control, treated, inhibition, significance) (Dose [Inhibitor]: 0.5 OR 1.0 MMOL/KG DIET DAILY STARTING 1 WK AFTER CARCINOGEN TREATMENT AND CONTINUING THROUGH THE END OF THE STUDY (STUD, Strain/Sex: SYRIAN/FEMALE, Target Tissue: Type of Lesion: PANCREAS: DUCTULAR CARCINOMA, Dose [Carcinogen]: 10 MG/KG BW ONCE): 6/23 (27%), 2/25 (8%), 70%, not significant | tumour outcome (control, treated, inhibition, significance) (Dose [Inhibitor]: 0.5 OR 1.0 MMOL/KG DIET DAILY STARTING 1 WK AFTER CARCINOGEN TREATMENT AND CONTINUING THROUGH THE END OF THE STUDY (STUD, Strain/Sex: SYRIAN/MALE, Target Tissue: Type of Lesion: LIVER: BENIGN TUMOR, Dose [Carcinogen]: 40 MG/KG BW ONCE): 4/20 (20%), 12/26 (46%), -130%, not significant and 5/24 (21%), 17/39 (44%), -110%, p<0.05 | tumour outcome (control, treated, inhibition, significance) (Dose [Inhibitor]: 0.5 OR 1.0 MMOL/KG DIET DAILY STARTING 1 WK AFTER CARCINOGEN TREATMENT AND CONTINUING THROUGH THE END OF THE STUDY (STUD, Strain/Sex: SYRIAN/MALE, Target Tissue: Type of Lesion: PANCREAS: DUCTULAR ADENOMA, Dose [Carcinogen]: 10 MG/KG BW ONCE): 3/22 (14%), 14/31 (45%), -221%, p<0.05 | tumour outcome (control, treated, inhibition, significance) (Dose [Inhibitor]: 0.5 OR 1.0 MMOL/KG DIET DAILY STARTING 1 WK AFTER CARCINOGEN TREATMENT AND CONTINUING THROUGH THE END OF THE STUDY (STUD, Strain/Sex: SYRIAN/MALE, Target Tissue: Type of Lesion: PANCREAS: DUCTULAR ADENOMA, Dose [Carcinogen]: 40 MG/KG BW ONCE): 8/24 (33%), 19/37 (51%), -55%, not significant | tumour outcome (control, treated, inhibition, significance) (Dose [Inhibitor]: 0.5 OR 1.0 MMOL/KG DIET DAILY STARTING 1 WK AFTER CARCINOGEN TREATMENT AND CONTINUING THROUGH THE END OF THE STUDY (STUD, Strain/Sex: SYRIAN/MALE, Target Tissue: Type of Lesion: PANCREAS: DUCTULAR CARCINOMA, Dose [Carcinogen]: 10 MG/KG BW ONCE): 4/22 (18%), 3/31 (10%), 44%, not significant | tumour outcome (control, treated, inhibition, significance) (Dose [Inhibitor]: 0.5 OR 1.0 MMOL/KG DIET DAILY STARTING 1 WK AFTER CARCINOGEN TREATMENT AND CONTINUING THROUGH THE END OF THE STUDY (STUD, Strain/Sex: SYRIAN/MALE, Target Tissue: Type of Lesion: PANCREAS: DUCTULAR CARCINOMA, Dose [Carcinogen]: 40 MG/KG BW ONCE): 5/24 (21%), 15/37 (40%), -90%, not significant | tumour outcome (control, treated, inhibition, significance) (Dose [Inhibitor]: 0.5 OR 1 MMOL/KG DIET DAILY STARTING 1 WK AFTER CARCINOGEN TREATMENT AND CONTINUING THROUGH THE END OF THE STUDY (STUDY, Strain/Sex: SYRIAN/FEMALE, Target Tissue: Type of Lesion: PANCREAS: DUCTULAR CARCINOMA, Dose [Carcinogen]: 40 MG/KG BW ONCE): 6/20 (30%), 7/26 (27%), 10%, not significant | tumour outcome (control, treated, inhibition, significance) (Dose [Inhibitor]: 0.5 OR 1.0 MMOL/KG/D IN DIET STARTING 1 WK AFTER CARCINOGEN TREATMENT AND CONTINUING THROUGH THE END OF THE STUDY (STUDY, Strain/Sex: SYRIAN/FEMALE, Target Tissue: Type of Lesion: LIVER: BENIGN TUMOR, Dose [Carcinogen]: 40 MG/KG BW ONCE): 4/20 (20%), 12/26 (46%), -130%, not significant | tumour outcome (control, treated, inhibition, significance) (Dose [Inhibitor]: 0.5 OR 1.0 MMOL/KG/D IN DIET STARTING 1 WK AFTER CARCINOGEN TREATMENT AND CONTINUING THROUGH THE END OF THE STUDY (STUDY, Strain/Sex: SYRIAN/FEMALE, Target Tissue: Type of Lesion: PANCREAS: DUCTULAR ADENOMA, Dose [Carcinogen]: 10 MG/KG BW ONCE): 5/23 (22%), 11/25 (44%), -100%, not significant | tumour outcome (control, treated, inhibition, significance) (Dose [Inhibitor]: 0.5 OR 1.0 MMOL/KG/D IN DIET STARTING 1 WK AFTER CARCINOGEN TREATMENT AND CONTINUING THROUGH THE END OF THE STUDY (STUDY, Strain/Sex: SYRIAN/FEMALE, Target Tissue: Type of Lesion: PANCREAS: DUCTULAR ADENOMA, Dose [Carcinogen]: 40 MG/KG BW ONCE): 12/20 (60%), 18/26 (69%), -15%, not significant | tumour outcome (control, treated, inhibition, significance) (Dose [Inhibitor]: 0.5 OR 1.0 MMOL/KG/D IN DIET STARTING 1 WK AFTER CARCINOGEN TREATMENT AND CONTINUING THROUGH THE END OF THE STUDY (STUDY, Strain/Sex: SYRIAN/FEMALE, Target Tissue: Type of Lesion: PANCREAS: DUCTULAR CARCINOMA, Dose [Carcinogen]: 10 MG/KG BW ONCE): 6/23 (27%), 2/25 (8%), 70%, not significant | tumour outcome (control, treated, inhibition, significance) (Dose [Inhibitor]: 0.5 OR 1.0 MMOL/KG/D IN DIET STARTING 1 WK AFTER CARCINOGEN TREATMENT AND CONTINUING THROUGH THE END OF THE STUDY (STUDY, Strain/Sex: SYRIAN/FEMALE, Target Tissue: Type of Lesion: PANCREAS: DUCTULAR CARCINOMA, Dose [Carcinogen]: 40 MG/KG BW ONCE): 6/20 (30%), 7/26 (27%), 10%, not significant | tumour outcome (control, treated, inhibition, significance) (Dose [Inhibitor]: 0.5 OR 1.0 MMOL/KG/D IN DIET STARTING 1 WK AFTER CARCINOGEN TREATMENT AND CONTINUING THROUGH THE END OF THE STUDY (STUDY, Strain/Sex: SYRIAN/MALE, Target Tissue: Type of Lesion: LIVER: BENIGN TUMOR, Dose [Carcinogen]: 40 MG/KG BW ONCE): 5/24 (21%), 17/39 (44%), -110%, p<0.05 | tumour outcome (control, treated, inhibition, significance) (Dose [Inhibitor]: 0.5 OR 1.0 MMOL/KG/D IN DIET STARTING 1 WK AFTER CARCINOGEN TREATMENT AND CONTINUING THROUGH THE END OF THE STUDY (STUDY, Strain/Sex: SYRIAN/MALE, Target Tissue: Type of Lesion: PANCREAS: DUCTULAR ADENOMA, Dose [Carcinogen]: 10 MG/KG BW ONCE): 3/22 (14%), 14/31 (45%), -221%, p<0.05 | tumour outcome (control, treated, inhibition, significance) (Dose [Inhibitor]: 0.5 OR 1.0 MMOL/KG/D IN DIET STARTING 1 WK AFTER CARCINOGEN TREATMENT AND CONTINUING THROUGH THE END OF THE STUDY (STUDY, Strain/Sex: SYRIAN/MALE, Target Tissue: Type of Lesion: PANCREAS: DUCTULAR ADENOMA, Dose [Carcinogen]: 40 MG/KG BW ONCE): 8/24 (33%), 19/37 (51%), -55%, not significant | tumour outcome (control, treated, inhibition, significance) (Dose [Inhibitor]: 0.5 OR 1.0 MMOL/KG/D IN DIET STARTING 1 WK AFTER CARCINOGEN TREATMENT AND CONTINUING THROUGH THE END OF THE STUDY (STUDY, Strain/Sex: SYRIAN/MALE, Target Tissue: Type of Lesion: PANCREAS: DUCTULAR CARCINOMA, Dose [Carcinogen]: 10 MG/KG BW ONCE): 4/22 (18%), 3/31 (10%), 44%, not significant | tumour outcome (control, treated, inhibition, significance) (Dose [Inhibitor]: 0.5 OR 1.0 MMOL/KG/D IN DIET STARTING 1 WK AFTER CARCINOGEN TREATMENT AND CONTINUING THROUGH THE END OF THE STUDY (STUDY, Strain/Sex: SYRIAN/MALE, Target Tissue: Type of Lesion: PANCREAS: DUCTULAR CARCINOMA, Dose [Carcinogen]: 40 MG/KG BW ONCE): 5/24 (21%), 15/37 (40%), -90%, not significant
